Reference: patent US6043217A, “Amide derivative of amythiamicin” (Zaidan Hojin Biseibutsu Kagaku Kenyu Kai, priority 1996, dated 2000)

Assays:
Type in all cases: cell-based
[1] = test system: Staphylococcus aureus No. 5 (MRSA); experiment: MIC, standard serial dilution method; settings: Muller-Hinton agar medium, 37° C.
[2] = test system: Proteus mirabilis IFM OM-9; experiment: MIC, standard serial dilution method; settings: Muller-Hinton agar medium, 37° C.
[3] = test system: Micrococcus luteus IFO 3333; experiment: MIC, standard serial dilution method; settings: Muller-Hinton agar medium, 37° C.
[4] = test system: Shigella sonnei JS 11746; experiment: MIC, standard serial dilution method; settings: Muller-Hinton agar medium, 37° C.
Description: (§1) The antibacterial activities of the amythiamicin amide derivative of the general formula (I) according to this invention are now concretely described. Compounds No. 1 to No. 11 according to this invention, which were respectively prepared in Examples 1 to 11 hereinafter given, were tested as the test compounds for their minimum inhibitory concentrations (MIC.) (μg/ml) against growth of a variety of test microorganisms by a standard serial dilution method. In the tests, the incubation medium used was Muller-Hinton agar medium and the incubation temperature was 37° C. The test results are shown as antibacterial spectra in the following Tables 2 and 3.

[5] = test system: Escherichia coli K-12 ML 1692; experiment: MIC, standard serial dilution method; settings: Muller-Hinton agar medium, 37° C.
Description: as §1

[6] = test system: Shigella clexnerl JS 11749; experiment: MIC, standard serial dilution method; settings: Muller-Hinton agar medium, 37° C.
Description: as §1

[7] = test system: Pseudomonas aeruginosa GN315; experiment: MIC, standard serial dilution method; settings: Muller-Hinton agar medium, 37° C.
[8] = test system: Corynebacterium bovis 1810; experiment: MIC, standard serial dilution method; settings: Muller-Hinton agar medium, 37° C.
[9] = test system: Bacillus cereus ATCC 10702; experiment: MIC, standard serial dilution method; settings: Muller-Hinton agar medium, 37° C.
[10] = test system: Staphylococcus aureus TY-0428; experiment: MIC, standard serial dilution method; settings: Muller-Hinton agar medium, 37° C.
[11] = test system: Micrococcus luteus FDA 16; experiment: MIC, standard serial dilution method; settings: Muller-Hinton agar medium, 37° C.
[12] = test system: Escherichia coli BE 1186; experiment: MIC, standard serial dilution method; settings: Muller-Hinton agar medium, 37° C.
[13] = test system: Staphylococcus aureus Smith; experiment: MIC, standard serial dilution method; settings: Muller-Hinton agar medium, 37° C.
[14] = test system: Providencia rettgeri GN 466; experiment: MIC, standard serial dilution method; settings: Muller-Hinton agar medium, 37° C.
[15] = test system: Bacillus subtilis NRRL B-558; experiment: MIC, standard serial dilution method; settings: Muller-Hinton agar medium, 37° C.
[16] = test system: Salmonella enteritidis 1891; experiment: MIC, standard serial dilution method; settings: Muller-Hinton agar medium, 37° C.
[17] = test system: Candida albicans 3147; experiment: MIC, standard serial dilution method; settings: Muller-Hinton agar medium, 37° C.
[18] = test system: Bacillus anthracis; settings: Muller-Hinton agar medium, 37° C.
[19] = test system: Pseudomonas aeruginosa A3; experiment: MIC, standard serial dilution method; settings: Muller-Hinton agar medium, 37° C.
[20] = test system: Staphylococcus aureus FDA 209P; experiment: MIC, standard serial dilution method; settings: Muller-Hinton agar medium, 37° C.
[21] = test system: Mycobacterium smegmatis ATCC 607; experiment: MIC, standard serial dilution method; settings: Muller-Hinton agar medium, 37° C.
[22] = test system: Staphylococcus aureus No. 17 (MRSA); experiment: MIC, standard serial dilution method; settings: Muller-Hinton agar medium, 37° C.
[23] = test system: Bacillus subtilis PCI 219; experiment: MIC, standard serial dilution method; settings: Muller-Hinton agar medium, 37° C.
[24] = test system: Escherichia coli NIHJ; experiment: MIC, standard serial dilution method; settings: Muller-Hinton agar medium, 37° C.
[25] = test system: Providencia rettgeri GN 311; experiment: MIC, standard serial dilution method; settings: Muller-Hinton agar medium, 37° C.
[26] = test system: Escherichia coli K-12; experiment: MIC, standard serial dilution method; settings: Muller-Hinton agar medium, 37° C.
[27] = test system: Serratia marcescens; experiment: MIC, standard serial dilution method; settings: Muller-Hinton agar medium, 37° C.
[28] = test system: Staphylococcus aureus MS 9610; experiment: MIC, standard serial dilution method; settings: Muller-Hinton agar medium, 37° C.
[29] = test system: Micrococcus luteus PIC 1001; experiment: MIC, standard serial dilution method; settings: Muller-Hinton agar medium, 37° C.
[30] = test system: Proteus vulgaris OX 19; experiment: MIC, standard serial dilution method; settings: Muller-Hinton agar medium, 37° C.
[31] = test system: Shigella dysenteria JS 11910; experiment: MIC, standard serial dilution method; settings: Muller-Hinton agar medium, 37° C.
[32] = test system: Salmonella typhi T-63; experiment: MIC, standard serial dilution method; settings: Muller-Hinton agar medium, 37° C.
[33] = test system: Klebsiella pneumonia PCI 602; experiment: MIC, standard serial dilution method; settings: Klebsiella pneumonia PCI 602 (Table 2); Muller-Hinton agar medium, 37° C.
[34] = test system: Escherichia coli BEM 1121; experiment: MIC, standard serial dilution method; settings: Muller-Hinton agar medium, 37° C.
[35] = test system: Staphylococcus aureus MS 16526; experiment: MIC, standard serial dilution method; settings: Muller-Hinton agar medium, 37° C.
[36] = test system: Escherichia coli BEM 11; experiment: MIC, standard serial dilution method; settings: Muller-Hinton agar medium, 37° C.

| SMILES | Minimum growth inhibitory concentrations (MIC.) [1] [µg/mL] | Minimum growth inhibitory concentrations (MIC.) [2] [µg/mL] | Minimum growth inhibitory concentrations (MIC.) [3] [µg/mL] | Minimum growth inhibitory concentrations (MIC.) [4] [µg/mL] | Minimum growth inhibitory concentrations (MIC.) [5] [µg/mL] | Minimum growth inhibitory concentrations (MIC.) [6] [µg/mL] | Minimum growth inhibitory concentrations (MIC.) [7] [µg/mL] | Minimum growth inhibitory concentrations (MIC.) [8] [µg/mL] | Minimum growth inhibitory concentrations (MIC.) [9] [µg/mL] | Minimum growth inhibitory concentrations (MIC.) [10] [µg/mL] | Minimum growth inhibitory concentrations (MIC.) [11] [µg/mL] | Minimum growth inhibitory concentrations (MIC.) [12] [µg/mL] | Minimum growth inhibitory concentrations (MIC.) [13] [µg/mL] | Minimum growth inhibitory concentrations (MIC.) [14] [µg/mL] | Minimum growth inhibitory concentrations (MIC.) [15] [µg/mL] | Minimum growth inhibitory concentrations (MIC.) [16] [µg/mL] | Minimum growth inhibitory concentrations (MIC.) [17] [µg/mL] | Minimum growth inhibitory concentrations (MIC.) [18] [µg/mL] | Minimum growth inhibitory concentrations (MIC.) [19] [µg/mL] | Minimum growth inhibitory concentrations (MIC.) [20] [µg/mL] | also measured |
| --- | --- | --- | --- | --- | --- | --- | --- | --- | --- | --- | --- | --- | --- | --- | --- | --- | --- | --- | --- | --- | --- |
| CNC(=O)CC1NC(=O)c2csc(n2)-c2ccc(-c3nc(C(=O)NCCCN(C)CCCN)cs3)nc2-c2csc(n2)-c2csc(n2)C(C(C)C)NC(=O)CNC(=O)c2csc(n2)C(C(C)C)NC(=O)c2nc1sc2C (stereo not drawn) [Compound No. 4] | > 100 | > 100 | > 100 | > 100 | > 100 | > 100 | > 100 | > 100 | 6.25 | > 100 | > 100 | > 100 | 12.5 | > 100 | > 100 | > 100 | > 100 | 3.12 | > 100 | 12.5 | Minimum growth inhibitory concentrations (MIC.) [21]: > 100 µg/mL; Minimum growth inhibitory concentrations (MIC.) [22]: > 100 µg/mL; Minimum growth inhibitory concentrations (MIC.) [23]: > 100 µg/mL; Minimum growth inhibitory concentrations (MIC.) [24]: > 100 µg/mL; Minimum growth inhibitory concentrations (MIC.) [25]: > 100 µg/mL; Minimum growth inhibitory concentrations (MIC.) [26]: > 100 µg/mL; Minimum growth inhibitory concentrations (MIC.) [27]: > 100 µg/mL; Minimum growth inhibitory concentrations (MIC.) [28]: 50 µg/mL; Minimum growth inhibitory concentrations (MIC.) [29]: 3.12 µg/mL; Minimum growth inhibitory concentrations (MIC.) [30]: > 100 µg/mL; Minimum growth inhibitory concentrations (MIC.) [31]: > 100 µg/mL; Minimum growth inhibitory concentrations (MIC.) [32]: > 100 µg/mL; Minimum growth inhibitory concentrations (MIC.) [33]: > 100 µg/mL; Minimum growth inhibitory concentrations (MIC.) [34]: > 100 µg/mL; Minimum growth inhibitory concentrations (MIC.) [35]: > 100 µg/mL; Minimum growth inhibitory concentrations (MIC.) [36]: > 100 µg/mL |
| CNC(=O)CC1NC(=O)c2csc(n2)-c2ccc(-c3nc(C(=O)NCCCN)cs3)nc2-c2csc(n2)-c2csc(n2)C(C(C)C)NC(=O)CNC(=O)c2csc(n2)C(C(C)C)NC(=O)c2nc1sc2C (stereo not drawn) [Compound No. 5] | 6.25 | > 100 | 3.12 | > 100 | > 100 | > 100 | > 100 | > 100 | 1.56 | 3.12 | 12.5 | > 100 | 3.12 | > 100 | 6.25 | > 100 | > 100 | 0.78 | > 100 | 0.78 | Minimum growth inhibitory concentrations (MIC.) [21]: > 100 µg/mL; Minimum growth inhibitory concentrations (MIC.) [22]: 6.25 µg/mL; Minimum growth inhibitory concentrations (MIC.) [23]: 3.12 µg/mL; Minimum growth inhibitory concentrations (MIC.) [24]: > 100 µg/mL; Minimum growth inhibitory concentrations (MIC.) [25]: > 100 µg/mL; Minimum growth inhibitory concentrations (MIC.) [26]: > 100 µg/mL; Minimum growth inhibitory concentrations (MIC.) [27]: > 100 µg/mL; Minimum growth inhibitory concentrations (MIC.) [28]: 3.12 µg/mL; Minimum growth inhibitory concentrations (MIC.) [29]: 0.78 µg/mL; Minimum growth inhibitory concentrations (MIC.) [30]: > 100 µg/mL; Minimum growth inhibitory concentrations (MIC.) [31]: > 100 µg/mL; Minimum growth inhibitory concentrations (MIC.) [32]: > 100 µg/mL; Minimum growth inhibitory concentrations (MIC.) [33]: > 100 µg/mL; Minimum growth inhibitory concentrations (MIC.) [34]: > 100 µg/mL; Minimum growth inhibitory concentrations (MIC.) [35]: 6.25 µg/mL; Minimum growth inhibitory concentrations (MIC.) [36]: > 100 µg/mL |
